# Test results as given in patent US20250340574A1, “MODULATORS OF CYSTIC FIBROSIS TRANSMEMBRANE CONDUCTANCE REGULATOR” (Vertex Pharmaceuticals Incorporated, priority 2022, published 2025).
# Where “and” joins values, the source holds several entries; their conditions need not be identical. Identical values can stand only once. Like-named read-outs stand apart in the source and are kept apart here.
# Tests used:
# [1] = molecular target: T1, CFTR (F508del/MF-HBE cells) (Homo sapiens, UniProt P13569, DEL508-508); test: Ussing chamber assay of CFTR-mediated short-circuit currents, Assay C (0.026 μM to 25 μM, 6 concentrations); assay type: cell-based; settings: with 33 nM potentiator and 18 μM Tezacaftor, 20% human serum; for Emax: read-out: C Max activity (%)
# T1 construct: human bronchial epithelial (HBE) cells derived from CF subjects heterozygous for F508del and a minimal function CFTR mutation (F508del/MF-HBE); endogenous in cells; host or cells: Primary human bronchial epithelial cells from CF subjects (F508del/MF genotype), differentiated at an air-liquid interface
# T1 sequence (P13569 with tags, fused parts or gaps DEL508-508): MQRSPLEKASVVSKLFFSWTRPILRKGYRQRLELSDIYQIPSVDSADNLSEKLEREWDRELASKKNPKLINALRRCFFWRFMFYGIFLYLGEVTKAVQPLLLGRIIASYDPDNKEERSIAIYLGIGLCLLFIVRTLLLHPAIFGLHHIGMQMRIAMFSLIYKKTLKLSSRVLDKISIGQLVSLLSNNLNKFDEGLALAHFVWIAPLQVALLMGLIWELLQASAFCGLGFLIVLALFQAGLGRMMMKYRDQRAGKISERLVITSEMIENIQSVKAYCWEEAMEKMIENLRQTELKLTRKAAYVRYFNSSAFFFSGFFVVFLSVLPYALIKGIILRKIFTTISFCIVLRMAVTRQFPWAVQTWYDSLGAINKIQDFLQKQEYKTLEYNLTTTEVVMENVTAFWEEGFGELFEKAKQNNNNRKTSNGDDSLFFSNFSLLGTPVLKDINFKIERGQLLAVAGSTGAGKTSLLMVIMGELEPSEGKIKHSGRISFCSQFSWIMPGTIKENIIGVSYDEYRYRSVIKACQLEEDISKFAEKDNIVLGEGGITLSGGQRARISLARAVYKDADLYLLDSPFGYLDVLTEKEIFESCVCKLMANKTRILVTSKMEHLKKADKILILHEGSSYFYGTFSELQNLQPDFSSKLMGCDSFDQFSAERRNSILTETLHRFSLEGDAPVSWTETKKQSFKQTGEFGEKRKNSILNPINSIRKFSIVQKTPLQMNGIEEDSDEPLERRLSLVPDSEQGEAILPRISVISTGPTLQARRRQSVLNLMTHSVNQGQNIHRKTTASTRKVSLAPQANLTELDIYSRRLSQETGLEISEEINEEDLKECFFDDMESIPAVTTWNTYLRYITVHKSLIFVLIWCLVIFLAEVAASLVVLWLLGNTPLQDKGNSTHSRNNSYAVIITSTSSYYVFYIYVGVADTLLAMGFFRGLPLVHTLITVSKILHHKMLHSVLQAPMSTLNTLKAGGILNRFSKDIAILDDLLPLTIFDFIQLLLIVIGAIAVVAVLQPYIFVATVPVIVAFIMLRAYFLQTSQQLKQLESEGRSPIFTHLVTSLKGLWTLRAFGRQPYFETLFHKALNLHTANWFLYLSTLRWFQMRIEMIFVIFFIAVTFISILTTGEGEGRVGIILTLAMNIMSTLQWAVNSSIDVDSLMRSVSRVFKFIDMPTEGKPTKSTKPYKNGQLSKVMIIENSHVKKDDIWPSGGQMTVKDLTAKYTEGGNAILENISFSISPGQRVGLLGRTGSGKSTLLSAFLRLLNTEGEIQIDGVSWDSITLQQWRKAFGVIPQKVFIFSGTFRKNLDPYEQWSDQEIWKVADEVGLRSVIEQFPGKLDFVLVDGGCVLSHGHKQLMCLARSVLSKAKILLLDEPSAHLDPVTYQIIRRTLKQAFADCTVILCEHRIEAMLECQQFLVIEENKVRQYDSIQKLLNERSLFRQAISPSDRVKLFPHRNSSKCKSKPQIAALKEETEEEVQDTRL
# Outline: (§1)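 F508del/MF-HBE cells grown at air-liquid interface were incubated 18-24 h at 37 °C in 20% human serum with correctors plus 18 μM tezacaftor and a fixed partner compound (33 nM for concentration series, 44 nM at 1 μM). ISC was read at 0 mV after 20 μM forskolin, minus the post-inhibitor current.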
# [2] = amide bond, 13-membered ring, DMF
# [3] = molecular target: T1, CFTR (F508del/MF-HBE cells); test: Ussing chamber assay of CFTR-mediated short-circuit currents, Assay D (single concentration of 1 μM); assay type: cell-based; settings: with 44 nM potentiator and 18 μM Tezacaftor, 20% human serum; for D activity at 1 μM (%): 18-24 hours
# Outline: as §1
compound,measurement,setting,value
"CCc1c2nc(nc1-c1c(C)cccc1C)NS(=O)(=O)c1cccc(c1)C(=O)N(Cc1cnc3cc(C(C)(C)C)n(C)c3n1)[C@H](COC(C)C)CO2 [IV-4, (11R)-12-[(6-tert-butyl-5-methyl-pyrrolo[2,3-b]pyrazin-3-yl)methyl]-6-(2,6-dimethylphenyl)-7-ethyl-11-(isopropoxymethyl)-2,2-dioxo-9-oxa-2λ^6-thia-3,5,12,19-tetrazatricyclo[12.3.1.14,8]nonadeca-1(17),4(19),5,7,14(18),15-hexaen-13-one]",EC50,[1],< 1000 nM
same,Emax,[1],> 60%
same,"ring closure, yield after HPLC","[2]; from CCc1c(OC[C@@H](COC(C)C)NCc2cnc3cc(C(C)(C)C)n(C)c3n2)nc(NS(=O)(=O)c2cccc(C(=O)O)c2)nc1-c1c(C)cccc1C, CDMT/NMM, 10.0 mM, 25.0 °C, 3.5 h",20%
same,D act. at 1 μM (%),[3],+++ (+++ is >60%)
"Cc1cccc(C)c1-c1cc2nc(n1)NS(=O)(=O)c1cccc(c1)C(=O)N(Cc1ncc3cc(C(C)(C)C)n(C)c3n1)[C@H](CC13CC(C1)C3)CO2 [IV-35, (11R)-11-(1-bicyclo[1.1.1]pentanylmethyl)-12-[(6-tert-butyl-7-methyl-pyrrolo[2,3-d]pyrimidin-2-yl)methyl]-6-(2,6-dimethylphenyl)-2,2-dioxo-9-oxa-2λ^6-thia-3,5,12,19-tetrazatricyclo[12.3.1.14,8]nonadeca-1(18),4(19),5,7,14,16-hexaen-13-one]",EC50,[1],< 1000 nM
same,Emax,[1],> 60%
same,"ring closure, yield after HPLC","[2]; from Cc1cccc(C)c1-c1cc(OC[C@@H](CC23CC(C2)C3)NCc2ncc3cc(C(C)(C)C)n(C)c3n2)nc(NS(=O)(=O)c2cccc(C(=O)O)c2)n1, CDMT/NMM, 9.95 mM, 25.0 °C, 16.5 h",27%
same,D act. at 1 μM (%),[3],+++ (+++ is >60%)
"Cc1cccc(C)c1-c1cc2nc(n1)NS(=O)(=O)c1cccc(c1)C(=O)N(Cc1cnc3cc(C(C)(C)C)n(C)c3n1)[C@H](CC1(C)CC1)CO2 [Compound I-187, (11R)-12-[(6-tert-Butyl-5-methyl-pyrrolo[2,3-b]pyrazin-3-yl)methyl]-6-(2,6-dimethylphenyl)-11-[(1-methylcyclopropyl)methyl]-2,2-dioxo-9-oxa-2λ^6-thia-3,5,12,19-tetrazatricyclo[12.3.1.14,8]nonadeca-1(18),4(19),5,7,14,16-hexaen-13-one]",Emax,[1]; 18-24 hours,> 60%
same,EC50,[1],< 1000 nM
same,"ring closure, yield after HPLC","[2]; from Cc1cccc(C)c1-c1cc(OC[C@@H](CC2(C)CC2)NCc2cnc3cc(C(C)(C)C)n(C)c3n2)nc(NS(=O)(=O)c2cccc(C(=O)O)c2)n1, CDMT/NMM, 22.5 mM, 4.0 h",41%
same,D activity at 1 μM (%),[3],+++ (+++ is >60%)
"Cc1cccc(COC(C)C)c1-c1nc2nc(c1C)OC[C@@H](CC(C)(C)C)N(Cc1cnc3oc(C(C)(C)C)cc3n1)C(=O)c1cccc(c1)S(=O)(=O)N2 (single isomer, unassigned) [IV-40]",EC50,[1],< 1000 nM
same,Emax,[1],> 60%
same,"ring closure, yield after HPLC","[2]; from Cc1cccc(COC(C)C)c1-c1nc(NS(=O)(=O)c2cccc(C(=O)O)c2)nc(OC[C@@H](CC(C)(C)C)NCc2cnc3oc(C(C)(C)C)cc3n2)c1C, CDMT/NMM, 15.1 mM, 25.0 °C, 60.0 h",23%
same,D act. at 1 μM (%),[3],+++ (+++ is >60%)
"Cc1cccc(C)c1-c1cc2nc(n1)NS(=O)(=O)c1cccc(c1)C(=O)N(Cc1cc3ccn(C(C)C)c3cn1)[C@H](CC1(C)CC1)CO2 [III-25, (11R)-6-(2,6-Dimethylphenyl)-12-[(I-isopropylpyrrolo[2,3-c]pyridin-5-yl)methyl]-11-[(I-methylcyclopropyl)methyl]-2,2-dioxo-9-oxa-2λ^6-thia-3,5,12,19-tetrazatricyclo[12.3.1.14,8]nonadeca-1(18),4(19),5,7,14,16-hexaen-13-one]","ring closure, yield after HPLC","[2]; from Cc1cccc(C)c1-c1cc(OC[C@@H](CC2(C)CC2)NCc2cc3ccn(C(C)C)c3cn2)nc(NS(=O)(=O)c2cccc(C(=O)O)c2)n1, CDMT/NMM, 9.73 mM, 16.33 h",50%
same,D activity at 1 μM (%),[3],+++ (+++ is >60%)
"Cc1cccc(C)c1-c1cc2nc(n1)NS(=O)(=O)c1cccc(c1)C(=O)N(Cc1cnc3c(n1)CN(C(C)C)C3=O)[C@H](CC13CC(C1)C3)CO2 [III-16, (11R)-11-(1-bicyclo[1.1.1]pentanylmethyl)-6-(2,6-dimethylphenyl)-12-[(6-isopropyl-7-oxo-5H-pyrrolo[3,4-b]pyrazin-3-yl)methyl]-2,2-dioxo-9-oxa-2λ^6-thia-3,5,12,19-tetrazatricyclo[12.3.1.14,8]nonadeca-1(18),4(19),5,7,14,16-hexaen-13-one]","ring closure, yield after HPLC","[2]; from Cc1cccc(C)c1-c1cc(OC[C@@H](CC23CC(C2)C3)NCc2cnc3c(n2)CN(C(C)C)C3=O)nc(NS(=O)(=O)c2cccc(C(=O)O)c2)n1, CDMT/NMM, 13.0 mM, 16.5 h",39%
same,D activity at 1 μM (%),[3],+++ (+++ is >60%)
"Cc1cccc(C)c1-c1cc2nc(n1)NS(=O)(=O)c1cccc(c1)C(=O)N(Cc1cnc3oc(C(C)C)cc3n1)[C@H](CC1CCCOC1)CO2 (single isomer, unassigned) [Compound I-66]","ring closure, yield after HPLC","[2]; from Cc1cccc(C)c1-c1cc(OC[C@@H](CC2CCCOC2)NCc2cnc3oc(C(C)C)cc3n2)nc(NS(=O)(=O)c2cccc(C(=O)O)c2)n1, CDMT/NMM, 11.8 mM, 72.5 h",17% and 20%
same,D activity at 1 μM (%),[3],+++ (+++ is >60%)
"Cc1cccc(C)c1-c1cc2nc(n1)NS(=O)(=O)c1cccc(c1)C(=O)N(Cc1cnc3nc(C(C)C)oc3n1)[C@H](CC1(C)CC1)CO2 [Compound I-159, (11R)-6-(2,6-Dimethylphenyl)-12-[(2-isopropyloxazolo[4,5-b]pyrazin-6-yl)methyl]-11-[(I-methylcyclopropyl)methyl]-2,2-dioxo-9-oxa-2λ^6-thia-3,5,12,19-tetrazatricyclo[12.3.1.14,8]nonadeca-1(18),4(19),5,7,14,16-hexaen-13-one]","ring closure, yield after HPLC","[2]; from Cc1cccc(C)c1-c1cc(OC[C@@H](CC2(C)CC2)NCc2cnc3nc(C(C)C)oc3n2)nc(NS(=O)(=O)c2cccc(C(=O)O)c2)n1, CDMT/NMM, 26.6 mM, 2.08 h",26%
same,D activity at 1 μM (%),[3],+++ (+++ is >60%)
"Cc1cccc(C)c1-c1cc2nc(n1)NS(=O)(=O)c1cccc(c1)C(=O)N(Cc1cnc3oc(C(C)C)c(C(F)(F)F)c3n1)[C@H](CC1(C)CC1)CO2 [Compound I-126, (11R)-6-(2,6-dimethylphenyl)-12-[[6-isopropyl-7-(trifluoromethyl)furo[2,3-b]pyrazin-2-yl]methyl]-11-[(1-methylcyclopropyl)methyl]-2,2-dioxo-9-oxa-2λ^6-thia-3,5,12,19-tetrazatricyclo[12.3.1.14,8]nonadeca-1(18),4(19),5,7,14,16-hexaen-13-one]","ring closure, yield after HPLC","[2]; from Cc1cccc(C)c1-c1cc(OC[C@@H](CC2(C)CC2)NCc2cnc3oc(C(C)C)c(C(F)(F)F)c3n2)nc(NS(=O)(=O)c2cccc(C(=O)O)c2)n1, CDMT/NMM, 12.1 mM, 16.5 h",36%
same,D activity at 1 μM (%),[3],+++ (+++ is >60%)
"Cc1cccc(C)c1-c1cc2nc(n1)NS(=O)(=O)c1cccc(c1)C(=O)N(Cc1cnc3nc(C4CC4)n(C)c3n1)[C@H](CC13CC(C1)C3)CO2 [Compound I-175, (11R)-11-(1-Bicyclo[1.1.1]pentanylmethyl)-12-[(2-cyclopropyl-3-methyl-imidazo[4,5-b]pyrazin-5-yl)methyl]-6-(2,6-dimethylphenyl)-2,2-dioxo-9-oxa-2λ^6-thia-3,5,12,19-tetrazatricyclo[12.3.1.14,8]nonadeca-1(18),4(19),5,7,14,16-hexaen-13-one]","ring closure, yield after HPLC","[2]; from Cc1cccc(C)c1-c1cc(OC[C@@H](CC23CC(C2)C3)NCc2cnc3nc(C4CC4)n(C)c3n2)nc(NS(=O)(=O)c2cccc(C(=O)O)c2)n1, CDMT/NMM, 11.1 mM, 16.5 h",28%
same,D activity at 1 μM (%),[3],+++ (+++ is >60%)
"Cc1cccc(C)c1-c1cc2nc(n1)NS(=O)(=O)c1cccc(c1)C(=O)N(Cc1cnc3oc(C(C)(C)C)cc3n1)[C@H](C[C@H]1CCCCO1)CO2 [Compound I-220, (11R)-12-[(6-tert-Butylfuro[2,3-b]pyrazin-2-yl)methyl]-6-(2,6-dimethylphenyl)-2,2-dioxo-11-[[(2R)-tetrahydropyran-2-yl]methyl]-9-oxa-2λ^6-thia-3,5,12,19-tetrazatricyclo[12.3.1.14,8]nonadeca-1(18),4(19),5,7,14,16-hexaen-13-one]","ring closure, yield after HPLC","[2]; from Cc1cccc(C)c1-c1cc(OC[C@@H](C[C@H]2CCCCO2)NCc2cnc3oc(C(C)(C)C)cc3n2)nc(NS(=O)(=O)c2cccc(C(=O)O)c2)n1, CDMT/DIEA, 11.6 mM, 48.0 h",70%
same,D activity at 1 μM (%),[3],+++ (+++ is >60%)
"Cc1cccc(C)c1-c1cc2nc(n1)NS(=O)(=O)c1cccc(c1)C(=O)N(Cc1ccc3oc(C4(C)CC4)cc3n1)[C@H](CC13CC(C1)C3)CO2 [Compound I-225, (11R)-11-(1-Bicyclo[1.1.1]pentanylmethyl)-6-(2,6-dimethylphenyl)-12-[[2-(1-methylcyclopropyl)furo[3,2-b]pyridin-5-yl]methyl]-2,2-dioxo-9-oxa-2λ^6-thia-3,5,12,19-tetrazatricyclo[12.3.1.14,8]nonadeca-1(18),4(19),5,7,14,16-hexaen-13-one]","ring closure, yield after HPLC","[2]; from Cc1cccc(C)c1-c1cc(OC[C@@H](CC23CC(C2)C3)NCc2ccc3oc(C4(C)CC4)cc3n2)nc(NS(=O)(=O)c2cccc(C(=O)O)c2)n1, CDMT/NMM",61%
same,D activity at 1 μM (%),[3],+++ (+++ is >60%)
